Patent US10254285B2, “Methods for detecting and treating cancer metastasis” (Cedars-Sinai Medical Center, priority 2013, dated 2019)

Assays:
WPMY-1 cells = assay: Uptake of PKH26-labeled large oncosomes (LO) by recipient cells, FACS / fluorescent imaging; type: cell-based, human; conditions: WPMY-1 cells treated with PKH26-labeled LO for 1 h at 37° C. in presence of the compound
Procedure: As shown in FIG. 23 LO internalization differs between cells. LO isolation was performed using a filtration approach where the larger vesicles are retained by the filter and the smaller ones flow through. To test LO uptake, LO were labeled with a lipophilic dye, PKH26 and then used to treat target cells for 1 h at 37° C. LO uptake levels have been measured as the acquisition of fluorescence by target cells either by FACS or confocal imaging.
LO isolation was preformed using a filtration approach where the larger vesicles are retained by the filter and the smaller ones flow through. To test LO uptake LO were labeled with a lipophilic dye, PKH26 and then used to treat target cells for 1 h at 37° C. or 4° C. in presence or absence of the indicated compounds. LO uptake levels were measured as the acquisition of fluorescence by target cells either by FACS and fluorescent imaging. Dynamin2 silencing has been performed by transient transfection of WPMY-1 cells with an oligos against Dynamin2.

c-Myc = assay: Luciferase reporter assay for c-Myc promoter activation in NAF; type: cell-based; conditions: NAF exposed to LO (20 μg/ml) in presence of Dyn (20 μM)
Procedure: LO and Exo isolation was performed by differential high-speed centrifugation (10,000×g and 100,000×g) followed discontinuous density gradient centrifugation. Conditioned media from LNCaPMyrAkt1 was used as source for LO and Exo. Nuclear extract from WPMY-1 cells treated with LO for the indicated time was used to perform the transcription factor activation profiling array from Signosis. Luciferase reporter assay for c-Myc promoter activation has been performed in NAF transfected with c-Myc promoter or vector plasmid treated with either LO or Exo 20 μg/ml for 6 h. RT-qPCR for c-Myc target cells in NAF treated with either LO or Exo 20 μg/ml for 6 h or 24 h.
LO and Exo isolation was performed by differential high-speed centrifugation (10,000×g and 100,000×g) followed by discontinuous density gradient centrifugation. Conditioned media from LNCaPMyrAkt1 was used as source for LO and Exo. […] After for 6 h-8 h tube formation rate is recorded by imaging, and quantified by counting the branching points in randomly chosen fields from each condition.

HUVEC = assay: Tube formation assay in endothelial cells; type: cell-based; conditions: HUVECs treated with LO (20 μg/ml) in presence of Dyn
Procedure: (§1) LO and Exo isolation was performed by differential high-speed centrifugation (10,000×g and 100,000×g) followed by discontinuous density gradient centrifugation. Conditioned media from LNCaPMyrAkt1 was used as source for LO and Exo. Tube formation assay in endothelial cells, HUVEC treated with LO or Exo 20 μg/ml directly or with conditioned media from NAF previously exposed to either LO or Exo. After 6 h-8 h tube formation rate is recorded by imaging, and quantified by counting the branching points in randomly chosen fields from each condition.
as §1, with “Exo. Luciferase reporter assay for c-Myc promoter activation was performed in NAF transfected with c-Myc promoter or vector plasmid treated with either LO or Exo 20 μg/ml for 6 h in presence or absence of Dynasore 20 nM.” for “Exo.”, “directly in presence” for “directly”, “absence of Dynasore 20 nM.” for “with conditioned media from NAF previously exposed to either LO or Exo.”, “After for” for “After”

Row | Compound | LO uptake (internalization, mean fluorescent intensity) (WPMY-1 cells) | LO uptake (internalization, mean fluorescent intensity) (WPMY-1 cells; listed as Dyn) | c-Myc activation induced by LO (luciferase reporter) (c-Myc) | tube formation (HUVEC)
1 | O=C(N/N=C/c1ccc(O)c(O)c1)c1cc2ccccc2cc1O [dynasore] | significantly reduced | inhibited | reverted | significantly inhibited
2 | C=C1[C@@H](C)[C@H]2[C@H](Cc3ccccc3)NC(=O)[C@]23[C@H](OC(C)=O)/C=C/[C@@](C)(O)C(=O)[C@@H](C)C/C=C/[C@H]3[C@@H]1O [cytochalasin D] | partially reduced | – | – | –
